What all share (assay): DTP human tumour cell line panel, 48 h
The test system of test [1] is NCI-H522 lung.
Test [2] relates to EKVX NSCLC.
Test [3] concerns SK-MEL-2 melanoma.
Test [4] relates to A498 renal.
For test [5], the system named is SN12C renal.
Test [6] deals with OVCAR-8 ovarian.
In test [7] the test system is SF-295 CNS.
The subject of test [8] is NCI-H460 lung.
The subject of test [9] is SNB-19 CNS.
Test [10] has as its system BT-549 breast.

Data on 14 compounds can be found in PubChem BioAssay (NCI).

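All cell lines were grown in 96-well plates and treated with compound for 48 hours. The concentration for 50% growth inhibition is given as GI50. TGI: concentration producing complete growth inhibition.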

On to `CCOC(=O)CN(CC)C(=O)NC12CC3CC(CC(C3)C1)C2`, for which the TGI was 493 µM in [1]; over 422 µM in [2]; 281 µM in test [3]; 413 µM in [4]; over 750 µM in [5]; over 750 µM in test [6]. In addition, the TGI in [7] was over 615 µM; in test [8] it was 558 µM; in [9], over 750 µM.
For `CCOC(=O)c1c(NS(=O)(=O)c2ccccc2)sc2c1CCCC2`, the TGI in test [2], in [3], in [4], in test [5], in [6] and in test [7] was over 100 µM throughout. The TGI in test [8], in [10] and in test [9] was over 100 µM throughout.
Regarding `O=C(OC[C@H]1C[C@H]2C(=O)OCCC[C@H]2O1)c1ccccc1`, the TGI in test [1], in test [2], in test [3], in [4], in [5] and in test [6] was over 100 µM throughout. The TGI in test [7], in [8] and in [9] was over 100 µM throughout.
As for `Cc1ccc2c(c1)CC1(Cc3cc(C)ccc3C1=O)C2=O`, the TGI in [1], in test [2], in test [3], in test [4], in [6] and in [7] was over 100 µM each time. Also, the TGI in test [8] and in test [9] was over 100 µM throughout.
`O=C1C=C2SC3C[C@@]24CC1(O)[N+]1=c2c4c(c(O)c4c2=C(C=N4)CC1)N3`: the TGI stood at 0.789 µM in test [1]; 40.9 µM in test [2]; 2.77 µM in test [3]; 3.33 µM in [4]; 2 µM in test [5]; 3.63 µM in test [6]. The results for the TGI in [7], in test [8] and in [9] were 2.95 µM, 4.26 µM and 3.12 µM, respectively.
As to `Cc1ccc(-c2ccc3c(c2)Sc2ccccc2O3)n1C`, the TGI is 0.373 µM in [1]; over 88.3 µM in test [2]; 4.26 µM in test [3]; 34 µM in test [4]; 7.88 µM in [5]; over 100 µM in test [6]. The TGI was 0.799 µM in test [7], over 36.5 µM in [8] and over 100 µM in [9].
`CCOc1c2c(cc3c1C(=O)c1c(OC)cccc1C3=O)C=C(OC)CC2`: the TGI in [1], in test [2], in test [3], in test [4], in [5] and in test [6] was over 25 µM each time. The total growth inhibition concentration (TGI) in test [7], in test [8] and in [9] was over 25 µM in each case.
In the case of `CSC(SC)=C(C#N)C(=O)Nc1ccc(Cl)cc1`, the TGI in test [2] was over 100 µM; in test [3] it was over 100 µM; in [4], 90.4 µM; in test [5], over 100 µM; in [6], over 100 µM; in test [8], over 100 µM. Further, the TGI in test [10] and in test [9] was over 100 µM throughout.
For the compound `O=[N+]([O-])C(/C=C(\Cl)[N+](=O)[O-])=C(N1CCOCC1)N1CCOCC1`, the TGI was over 100 µM in [1]; over 100 µM in test [2]; over 100 µM in test [3]; 51.5 µM in test [4]; over 100 µM in [5]; over 100 µM in [6]. The TGI in test [7], in test [8] and in test [9] was over 100 µM each time.
`C=CC[PH+](c1ccccc1)c1ccccc1.C=CC[PH+](c1ccccc1)c1ccccc1.[Pt+2].[S-]c1nc2ccccc2[nH]1.[S-]c1nc2ccccc2[nH]1`: the GI50 in test [2] was 2.36 µM; in test [3], 2.25 µM; in test [4], 1.72 µM; in test [7], 2.82 µM; in test [10] it was 2.11 µM. Also, the TGI in test [2] is over 100 µM; in [3], 5.36 µM; in test [4] it was 4.98 µM; in test [7], 8.44 µM; in test [10], 5.54 µM.
As to `CN1N=C(c2ccncc2)OC1c1ccc(C(F)(F)F)cc1` (stereo not given), the TGI in [1], in [2], in [3], in [4], in test [5] and in [6] was over 100 µM in each case. Further, the TGI in test [7], in [8] and in test [9] was over 100 µM in each case.
`CCOC(=O)/C(C(=O)c1ccc[nH]1)=C1/CCCN1C`: the TGI in test [2], in [3], in test [4], in test [5], in [6] and in test [7] was over 100 µM in each case. Further, the TGI in test [8], in test [10] and in test [9] was over 100 µM in each case.
Regarding `O=C1c2cccc3cc([N+](=O)[O-])cc(c23)C(=O)N1c1ccc(OCCN2CCCC2)cc1`, the TGI in test [1] is 31.7 µM; in test [2] it was 71.3 µM; in [3], 54.3 µM; in test [4], 32.2 µM; in test [5] it was over 100 µM; in [6] it was over 100 µM. Besides, the TGI in [7] was determined as 41.1 µM; in test [8], 21.3 µM; in test [9] it was 80.2 µM.
`CN(C)CCCn1c(-c2ccc(Br)cc2)csc1=Nc1ccccc1`: the TGI in test [2] amounted to 23.8 µM; in [3], 31 µM; in [4], 28.3 µM; in [5], 70.9 µM; in test [6] it was 32.1 µM; in test [7], 25.4 µM. Besides, the results for the TGI in [8], in [10] and in test [9] were 39.4 µM, 31.6 µM and 31.6 µM, respectively.

The term TGI denotes the concentration at which net growth stops. High values mean less potent growth arrest, low ones more potent growth arrest. Broadly, the GI50 is the concentration that inhibits growth by half.
